Reference: paper PMC4561207 (Child's nervous system : ChNS : official journal of the …, 2015)

Assay: Toxicities attributed to Cediranib
Format: in vivo, human

## COc1cc2c(Oc3ccc4[nH]c(C)cc4c3F)ncnc2cc1OCCCN1CCCC1 [cediranib, Cediranib]
All grades
  diarrhea, number of patients: Thirty-two
Grade 1 TOX
  Abdominal pain, events (patients): 5(5)
  Acidosis, events (patients): 1(1)
  Alanine aminotransferase increased, events (patients): 41(22)
  Alkaline phosphatase increased, events (patients): 2(2)
  Anal mucositis, events (patients): 1(1)
  Anal pain, events (patients): 1(1)
  Anemia, events (patients): 2(2)
  Anorexia, events (patients): 8(8)
  Aspartate aminotransferase increased, events (patients): 37(19)
  Back pain, events (patients): 1(1)
  Blood bilirubin increased, events (patients): 13(7)
  Bone pain, events (patients): 1(1)
  Cardiac troponin I increased, events (patients): 1(1)
  Cholesterol high, events (patients): 1(1)
  Chronic kidney disease, events (patients): 1(1)
  Constipation, events (patients): 5(2)
  Cough, events (patients): 1(1)
  Creatinine increased, events (patients): 1(1)
  Dehydration, events (patients): 1(1)
  Depression, events (patients): 1(1)
  Diarrhea, events (patients): 43(30)
  Dizziness, events (patients): 3(3)
  Dry mouth, events (patients): 1(1)
  Dry skin, events (patients): 1(1)
  Dyspepsia, events (patients): 3(3)
  Edema face, events (patients): 1(1)
  Edema limbs, events (patients): 1(1)
  Endocrine disorders - Other, specify, events (patients): 1(1)
  Epistaxis, events (patients): 5(4)
  Fatigue, events (patients): 7(7)
  Fecal incontinence, events (patients): 1(1)
  Fever, events (patients): 1(1)
  GGT increased, events (patients): 1(1)
  Gastritis, events (patients): 1(1)
  Gastrointestinal disorders - Other, specify, events (patients): 1(1)
  Headache, events (patients): 5(4)
  Hematuria, events (patients): 5(3)
  Hemoglobin increased, events (patients): 6(2)
  Hoarseness, events (patients): 1(1)
  Hypercalcemia, events (patients): 3(2)
  Hyperglycemia, events (patients): 7(6)
  Hyperkalemia, events (patients): 2(2)
  Hypermagnesemia, events (patients): 7(5)
  Hypernatremia, events (patients): 5(4)
  Hypertension, events (patients): 19(13)
  Hyperthyroidism, events (patients): 2(2)
  Hypoalbuminemia, events (patients): 20(13)
  Hypocalcemia, events (patients): 16(8)
  Hypoglycemia, events (patients): 2(2)
  Hypokalemia, events (patients): 14(11)
  Hypomagnesemia, events (patients): 6(4)
  Hyponatremia, events (patients): 9(5)
  Hypophosphatemia, events (patients): 10(8)
  Hypothyroidism, events (patients): 10(10)
  INR increased, events (patients): 1(1)
  Investigations - Other, specify, events (patients): 2(2)
  Joint effusion, events (patients): 1(1)
  Leukoencephalopathy, events (patients): 1(1)
  Lymphocyte count decreased, events (patients): 11(8)
  Malaise, events (patients): 2(1)
  Mucositis oral, events (patients): 1(1)
  Myalgia, events (patients): 1(1)
  Nausea, events (patients): 15(10)
  Neutrophil count decreased, events (patients): 11(8)
  Non-cardiac chest pain, events (patients): 1(1)
  Oral pain, events (patients): 2(2)
  Pain in extremity, events (patients): 3(3)
  Palmar-plantar erythrodysesthesia syndrome, events (patients): 4(4)
  Platelet count decreased, events (patients): 22(17)
  Proteinuria, events (patients): 20(13)
  Rash acneiform, events (patients): 2(2)
  Rash maculo-papular, events (patients): 5(5)
  Rectal pain, events (patients): 1(1)
  Renal and urinary disorders - Other, specify, events (patients): 1(1)
  Serum amylase increased, events (patients): 1(1)
  Skin and subcutaneous tissue disorders - Other, specify, events (patients): 1(1)
  Stomach pain, events (patients): 2(2)
  Urinary frequency, events (patients): 1(1)
  Urinary retention, events (patients): 1(1)
  Vascular disorders - Other, specify, events (patients): 2(2)
  Voice alteration, events (patients): 2(2)
  Vomiting, events (patients): 23(12)
  Weight loss, events (patients): 1(1)
  White blood cell decreased, events (patients): 13(11)
Grade 2 TOX
  Abdominal pain, events (patients): 5(5)
  Alanine aminotransferase increased, events (patients): 17(9)
  Anorexia, events (patients): 5(5)
  Arthralgia, events (patients): 1(1)
  Aspartate aminotransferase increased, events (patients): 4(4)
  Back pain, events (patients): 1(1)
  Bone pain, events (patients): 1(1)
  Constipation, events (patients): 1(1)
  Dehydration, events (patients): 1(1)
  Diarrhea, events (patients): 16(11)
  Dizziness, events (patients): 2(1)
  Fatigue, events (patients): 9(9)
  Flushing, events (patients): 3(1)
  Gastrointestinal disorders - Other, specify, events (patients): 1(1)
  Headache, events (patients): 3(3)
  Hyperglycemia, events (patients): 2(2)
  Hypertension, events (patients): 28(28)
  Hypoalbuminemia, events (patients): 6(4)
  Hypocalcemia, events (patients): 1(1)
  Hypoglycemia, events (patients): 1(1)
  Hypomagnesemia, events (patients): 1(1)
  Hypophosphatemia, events (patients): 4(2)
  Hypothyroidism, events (patients): 10(10)
  Hypoxia, events (patients): 1(1)
  Intracranial hemorrhage, events (patients): 4(4)
  Lipase increased, events (patients): 1(1)
  Lymphocyte count decreased, events (patients): 7(5)
  Mucositis oral, events (patients): 2(2)
  Myalgia, events (patients): 1(1)
  Nausea, events (patients): 3(3)
  Neutrophil count decreased, events (patients): 7(4)
  Pain in extremity, events (patients): 1(1)
  Pain, events (patients): 1(1)
  Palmar-plantar erythrodysesthesia syndrome, events (patients): 10(7)
  Pericardial effusion, events (patients): 1(1)
  Peripheral motor neuropathy, events (patients): 1(1)
  Platelet count decreased, events (patients): 3(3)
  Pleural effusion, events (patients): 1(1)
  Proteinuria, events (patients): 13(12)
  Respiratory, thoracic and mediastinal disorders - Other, specify, events (patients): 1(1)
  Reversible posterior leukoencephalopathy syndrome, events (patients): 1(1)
  Seizure, events (patients): 1(1)
  Skin ulceration, events (patients): 1(1)
  Vomiting, events (patients): 3(3)
  Weight loss, events (patients): 1(1)
  White blood cell decreased, events (patients): 4(2)
Grade 3 TOX
  Alanine aminotransferase increased, events (patients): 6(5)
  Anemia, events (patients): 1(1)
  Aspartate aminotransferase increased, events (patients): 1(1)
  Blurred vision, events (patients): 1(1)
  Capillary leak syndrome, events (patients): 1(1)
  Chest wall pain, events (patients): 1(1)
  Confusion, events (patients): 1(1)
  Dehydration, events (patients): 2(2)
  Depressed level of consciousness, events (patients): 1(1)
  Diarrhea, events (patients): 2(2)
  Dysphasia, events (patients): 1(1)
  Enterocolitis, events (patients): 1(1)
